Tests used:
[1] = 1H NMR evaluation of the oxidative consumption of salivary biomolecules by ozone; conditions: O3 for 30 seconds; unstimulated human saliva 0.60 ml; 1H NMR 600 MHz
Source text: Ozone is one of nature's most powerful oxidants which accounts for its ability to kill bacteria, spores and viruses. Uniquely, ozone decomposes to a harmless, non-toxic and environmentally safe material (oxygen). In this investigation, a multicomponent evaluation of the oxidative consumption of salivary biomolecules by ozone (O3) has been performed using high resolution proton (^1H) nuclear magnetic resonance (NMR) spectroscopy. The ozone-generating equipment employed in this study was designed by Purezone Ltd. (Ipswich, U.K.). Unstimulated human saliva samples were collected from 8 patients and each of them was divided into two equivalent portions (0.60 ml). The first of these was treated with O3 generated from the above device for a period of 30 seconds; the second group of portions served as controls. Samples were subjected to ^1H NMR analysis at an operating frequency of 600 MHz. […] High field ^1H NMR spectroscopy provides much useful analytical data regarding the fate of O3 in human saliva, information which is of much relevance to its potential therapeutic actions in vivo.

[2] = tested on: Microflora from Primary Root Caries; assay: Ozone effect on microflora from primary root caries ex-vivo; assay type: cell-based; conditions: for Mean ± SE of Total cfu (Log10): after 10 seconds of ozone treatment
Source text: Primary root carious lesions (PRCL) are a major clinical problem. […] An ozone producing generator (Purezone Ltd., Ipswich, U.K.) was used in this ex-vivo study assessing the use of ozone on PRCL. In this study, soft PRCL requiring restoration were used as these are the most severe type of lesion found in humans. 20 freshly extracted teeth with PRCL requiring restoration were used. After plaque removal using a hand held standard fine nylon fiber sterile toothbrush with sterile water as a lubricant to cleanse the surface, each tooth was then isolated using sterile cotton wool rolls and dried using a dry sterile cotton wool roll. […] Each sample was weighed and immediately placed in 1 ml of Fastidious Anaerobe Broth (FAB). […] They were vortexed for 30 seconds to facilitate the extraction of any micro-organisms from the carious dentine and disperse any aggregates. After decimal dilution with FAB, […] of these was spread on Fastidious Anaerobe Agar (LabM, Bury, […].) supplemented with 5% (v/V) horse blood in an anaerobic chamber at 37° C. for four days. The mean±SE number of each colony type was counted and calculated. The procedure of Example 2 was repeated except that ozonized water was applied to the lesion for 20 seconds. […] The aims of these studies were to evaluate the efficiency of ozone on primary root caries and associated micro-organisms (Streptococcus sobrinus; TH 21 Streptococcus mutans; NCTC 10449). […] In study 2, 40 sterile saliva coated glass beads were put into bijoux bottles with 3 mls of Todd Hewitt broth for control and test groups. S. sobrinus and S. mutans were inoculated and incubated anaerobically overnight. Each glass bead was washed with 2 mls of PBS. […] Subsequently, each glass bead in the test and control groups was placed in 3 mls of Todd Hewitt broth with six more sterile glass beads and were vortexed for 30 seconds. After decimal dilutions, […] were spread on blood agar plates supplemented with 5% (V/V) horse blood and placed in an anaerobic chamber at 37° C. for two days. The number of each colony type was counted and calculated. […] This treatment regime is therefore an effective, quick, conservative and simple method to kill micro-organisms in primary root carious lesions.

[3] = tested on: Streptococcus sobrinus; TH 21; assay: Ozone on S. sobrinus on saliva coated glass beads; assay type: cell-based; conditions: 10 seconds of ozone on saliva coated glass beads
Source text: The aims of these studies were to evaluate the efficiency of ozone on primary root caries and associated micro-organisms (Streptococcus sobrinus; TH 21 Streptococcus mutans; NCTC 10449). In study 1, 40 soft primary root carious lesions (PRCLs) from freshly extracted teeth were used and randomly divided into two groups to test the exposure to ozone for either 10 or 20 seconds. There was a significant (p<0.001) difference (Mean±SE) between the control samples for either 10 seconds (log10 5.91±0.15) or 20 seconds (log10 6.18±0.21) and ozone treated samples for either 10 seconds (log10 3.57±0.37) or 20 seconds (log10 3.77±0.42). In study 2, 40 sterile saliva coated glass beads were put into bijoux bottles with 3 mls of Todd Hewitt broth for control and test groups. S. sobrinus and S. mutans were inoculated and incubated anaerobically overnight. Each glass bead was washed with 2 mls of PBS. Immediately, 10 seconds of ozone was applied to the glass beads in the test groups. Subsequently, each glass bead in the test and control groups was placed in 3 mls of Todd Hewitt broth with six more sterile glass beads and were vortexed for 30 seconds. After decimal dilutions, […] were spread on blood agar plates supplemented with 5% (V/V) horse blood and placed in an anaerobic chamber at 37° C. for two days. The number of each colony type was counted and calculated. […]

[4] = tested on: Inflamed human gingivitis; assay: Effect of ozone on gum disease; assay type: in vivo; conditions: after exposure to ozone
Source text: Inflamed human gingivitis is exposed to ozone using the techniques herein described.

[5] = Ozone exposure of bacteria cultures (root canals); assay type: cell-based, Streptococcus aurous; conditions: exposed to ozone
Lactobacillus salivarius = assay: Ozone exposure of bacteria cultures (root canals); assay type: cell-based; conditions: exposed to ozone
[6] = tested on: Lactobacillus acidophilus; assay: Ozone exposure of bacteria cultures (root canals); assay type: cell-based; conditions: exposed to ozone
Month ulcerations = assay: Effect of ozone in the treatment of mouth ulcerations; assay type: in vivo; conditions: exposed to ozone
[7] = tested on: microorganisms associated with bad breath; assay: Effect of ozone in the treatment of bad breath; assay type: in vivo; conditions: mouth exposed to ozone
Source text: Bad breath is caused, in part, by the retention and subsequent degradation of dead cellular material, by microorganisms, sloughed off continuously by a normal, healthy mouth.

SMILES: O=[O+][O-] [ozone]
- effect of O3 treatment on salivary 3-D-hydroxybutyrate [1]: evidence for the O3-mediated oxidation of salivary 3-D-hydroxybutyrate
- effect of O3 treatment on salivary methionine [1]: oxidation of the volatile sulphur compound precursor methionine to its corresponding sulphoxide
- effect of O3 treatment on salivary polyunsaturated fatty acids [1]: oxidative consumption of salivary polyunsaturated fatty acids
- effect of O3 treatment on salivary pyruvate [1]: oxidative decarboxylation of the salivary electron-donor pyruvate
- percentage of micro-organisms killed ([2]; 10 seconds of ozone treatment): more than 99%
- Mean ± SE of Total cfu (Log10) ([2]; soft PRCL of freshly extracted teeth): 3.57±0.37 Log10
- Mean ± SE of Total cfu (Log10) ([2]; soft PRCL of freshly extracted teeth, listed as Ozone): 3.57 ± 0.37 Log10
- Total cfu, log10, mean±SE ([2]; after 20 seconds of ozone treatment, soft PRCL of freshly extracted teeth): 3.77±0.42 log10
- colony count, log10, Mean±SE [3]: 1.09±0.36 log10
- enzyme levels in extracts from inflamed human gingiva [4]: alleviated and/or reduced
- growth of the bacteria cultures [5]: eliminated or inhibited
- growth of the bacteria cultures (Lactobacillus salivarius): eliminated or inhibited
- growth of the bacteria cultures [6]: eliminated or inhibited
- enzyme levels in the month ulcerations (Month ulcerations): alleviated and/or reduced
- microorganisms in the ulceration (Month ulcerations): eliminated or reduced
- enzyme levels in the month [7]: alleviated and/or reduced
- microorganisms associated with bad breath [7]: eliminated or reduced

Reference: US20060110710A1, “Endodontic ozone therapy” (priority 2001, published 2006)
